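Briefly, cells in 96-well plates were exposed to five compound concentrations for 48 h, and endpoints were estimated by linear interpolation. At the TGI there is no net growth.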
Assays:
Test in all cases: NCI tumour cell line growth inhibition, 48 h
SN12K1 renal = system: SN12K1 renal
DMS 273 small cell lung = system: DMS 273 small cell lung
M19-MEL melanoma = system: M19-MEL melanoma
P388 leukemia = system: P388 leukemia
P388/ADR leukemia = system: P388/ADR leukemia
KM20L2 colon = system: KM20L2 colon
RXF-631 renal = system: RXF-631 renal
HOP-18 NSCLC = system: HOP-18 NSCLC
LXFL 529 NSCLC = system: LXFL 529 NSCLC

Measured: TGI

Nc1n[nH]c(=O)[nH]1
not listed: RXF-631 renal | HOP-18 NSCLC | LXFL 529 NSCLC
> 100 µM: all other assays above

CC(C)CC(N)C(=O)OCN1C(=O)C2C3C=CC(C2C1=O)C1C2C(=O)N(COC(=O)C(N)CC(C)C)C(=O)C2C31 (stereo not drawn)
> 100 µM: RXF-631 renal | DMS 273 small cell lung | HOP-18 NSCLC | LXFL 529 NSCLC | KM20L2 colon

Nc1ccccc1Nc1ccccc1C(=O)[O-].Nc1ccccc1Nc1ccccc1C(=O)[O-].[Cu+2]
> 100 µM: KM20L2 colon

COC1OC(=O)[C@H]2O[N+]([O-])=C(C)[C@@H]12 (stereo partly drawn)
not listed: DMS 273 small cell lung | RXF-631 renal | LXFL 529 NSCLC
> 100 µM: all other assays above
